Data reported in patent US6316413A (Fournier Industrie et Sante, priority 1996, dated 2001).

Key:
[1] = biological target: T1, bradykinin B2 receptor (segments of human umbilical vein) (Homo sapiens, UniProt P30411); test: B2 receptor-dependent contraction of human umbilical vein segments; format: cell-based; settings: calculated from concentrations causing B2 receptor-dependent contraction of human umbilical vein; read-out: pD2 (converted)
T1 construct: determination of a pD2 value on segments of human umbilical vein; from tissue; host or cells: segments of human umbilical vein
T1 sequence (P30411 1-391): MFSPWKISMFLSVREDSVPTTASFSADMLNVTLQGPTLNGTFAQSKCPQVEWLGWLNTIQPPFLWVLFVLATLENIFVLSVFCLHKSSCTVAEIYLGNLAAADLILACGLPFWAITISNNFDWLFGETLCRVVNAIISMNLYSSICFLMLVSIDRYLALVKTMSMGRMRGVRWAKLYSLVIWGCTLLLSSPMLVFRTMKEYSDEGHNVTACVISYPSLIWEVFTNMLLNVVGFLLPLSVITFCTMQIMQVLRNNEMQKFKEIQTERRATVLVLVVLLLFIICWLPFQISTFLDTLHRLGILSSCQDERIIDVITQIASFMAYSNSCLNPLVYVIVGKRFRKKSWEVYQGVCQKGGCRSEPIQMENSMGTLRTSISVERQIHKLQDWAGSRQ

[2] = biological target: T2, human B2 receptor cloned and transfected in a stable manner into a CHO cell line (Homo sapiens, UniProt P30411); test: Binding to the cloned human bradykinin B2 receptor (CHO cell line); settings: affinity for cloned human B2 receptor stably transfected into CHO cells
T2 construct: expressed in transfected cells
T2 sequence (P30411 1-391): T1 sequence (P30411 1-391)

EC50 [1]	Ki [2]	Structure (SMILES)
7940 nM	2.5 nM	N=C(N)NCCC[C@@H](N)C(=O)N[C@@H](CCCNC(=N)N)C(=O)N1CCC[C@H]1C(=O)N1C[C@H](O)C[C@H]1C(=O)NCC(=O)N[C@@H](Cc1cccs1)C(=O)N[C@@H](CO)C(=O)N[C@@H]1COc2ccccc2N(CC(=O)N[C@@H](CCCNC(=N)N)C(=O)O)C1=O [Ex. 4, H-D-Arg-Arg-Pro-4Hyp-Gly-Thi-Ser-DBO(H)-Arg-OH]
56.2 nM	6 nM	Cc1ccc2c(c1)SC[C@@H](NC(=O)[C@H](CO)NC(=O)[C@H](Cc1cccs1)NC(=O)CNC(=O)[C@@H]1C[C@@H](O)CN1C(=O)[C@@H]1CCCN1C(=O)[C@H](CCCNC(=N)N)NC(=O)[C@H](N)CCCNC(=N)N)C(=O)N2CC(=O)N[C@@H](CCCNC(=N)N)C(=O)O [Ex. 5, H-D-Arg-Arg-Pro-4Hyp-Gly-Thi-Ser-DBT(CH3)-Arg-OH]

The remaining lines, values behind:

Structure (SMILES)	EC50 [1]	Ki [2]
N=C(N)NCCC[C@@H](N)C(=O)N[C@@H](CCCNC(=N)N)C(=O)N1CCC[C@H]1C(=O)N1C[C@H](O)C[C@H]1C(=O)NCC(=O)N[C@@H](Cc1cccs1)C(=O)N[C@@H](CO)C(=O)N[C@@H]1CSc2ccccc2N(CC(=O)N[C@@H](CCCNC(=N)N)C(=O)O)C1=O [Ex. 1, H-D-Arg-Arg-Pro-4Hyp-Gly-Thi-Ser-DBT(H)-Arg-OH]	200 nM	0.7 nM
N=C(N)NCCC[C@H](NC(=O)CN1C(=O)[C@H](NC(=O)[C@H](CO)NC(=O)[C@H](Cc2cccs2)NC(=O)CNC(=O)[C@@H]2C[C@@H](O)CN2C(=O)[C@@H]2CCCN2C(=O)[C@H](CCCNC(=N)N)NC(=O)[C@@H](N)CCCCN)CSc2ccccc21)C(=O)O [Ex. 2, H-Lys-Arg-Pro-4Hyp-Gly-Thi-Ser-DBT(H)-Arg-OH]	79.4 nM	0.07 nM
N=C(N)NCCC[C@H](NC(=O)CN1C(=O)[C@H](NC(=O)[C@H](CO)NC(=O)[C@H](Cc2ccccc2)NC(=O)CNC(=O)[C@@H]2CCCN2C(=O)[C@@H]2CCCN2C(=O)[C@@H](N)CCCNC(=N)N)CSc2ccccc21)C(=O)O [Ex. 3, H-Arg-Pro-Pro-Gly-Phe-Ser-DBT(M)-Arg-OH]		12.9 nM
